Laboratory results: patent US10087197B2, “Selective extraction of anions from solution” (Western Michigan University Research Foundation, priority 2012, dated 2018)

Tests used:
[1] = Solubility of nano-jar aggregates and polymer in solvents; format: physicochemical; conditions: dark blue powder; for solubility in a wide variety of solvents: CCl4, CS2, aromatic hydrocarbons, ethers, ketones, esters, nitriles, amines, halogenated and nitro compounds, DMF and DMSO
Source text: The unusually high solubility of (Bu4N)2[SO4^2−⊂{cis-Cu^II(μ-OH)(μ-pz)}6+12+10], and (Bu4N)2[SO4^2−⊂{cis-Cu^II(μ-OH)(μ-pz)}8+14+9]
Production of Host 1 and Host 2 via depolymerisation of [Cu^II(μ-OH)(μ-pz)]∞ includes the steps of combining aqueous solutions of CuSO4 and KOH/Hpz (1:2:1 molar ratio), which results in the formation of a blue-purple precipitate (Scheme 1). […] Elemental analysis results concur with the formula [Cu(OH)(pz)] (for C3H4CuN2O, M.W.=147.62, calculated/found: C, 24.4124.25%; H, 2.73/2.72%; N, 18.9818.40%). The structure of this intractable material likely consists of linear polymeric chains resulting from an all-trans arrangement of the pyrazole and OH moieties about the copper centers, similar to the ones found in [Cu^II(μ-pz)2]∞.
(Bu4N)HSO4 or (Bu4N)2SO4 can be added to a suspension of [Cu(μ-OH)(μ-pz)]∞ in THF or toluene, which leads to the immediate formation of a deep blue solution, and gradual dissolution of the solid. […] Hexane vapor diffusion to a toluene solution is then used to obtain dark blue single crystals in the form of blocks and thin plates.
In particular, one embodiment includes anion-encapsulating aggregates based on encapsulating host assemblies such as {cis-Cu^II(μ-OH)(μ-4-Mepz)}27 (“Host 13”), {cis-Cu^II(μ-OH)(μ-4-Mepz)}28(“Host 14”), {cis-Cu^II(μ-OH)(μ-4-Mepz)}29(“Host 15”), {cis-Cu^II(μ-OH)(μ-4-Mepz)}30(“Host 16”), {cis-Cu^II(μ-OH)(μ-4-Mepz)}31(“Host 17”), and {cis-Cu^II(μ-OH)(μ-4-Mepz)}32(“Host 18”). These alkyl ligand-bound pyrazole anion-encapsulating aggregates include 4-methylpyrazole (“4-Mepz”) and are somewhat soluble in pentane, hexane and cyclohexane. Hosts 13, 15, and 17 selectively encapsulate both carbonate and sulfate anions. Hosts 14 and 18 selectively encapsulate sulfate anions. Host 16 selectively encapsulates carbonate anions. These encapsulating host assemblies form anion-encapsulating aggregates which are capable of encapsulating anions present as contaminants in aqueous-hydrocarbon solvent mixtures, including without limitation in-process nuclear waste.
Another embodiment of an anion-encapsulating host containing a longer chain ligand-bound pyrazole is based on the formation of encapsulating host assemblies including 4-butylpyrazole. Anion-encapsulating aggregates incorporating 4-butylpyrazole are very soluble in pentane, hexane and cyclohexane, and are gradually less soluble in longer hydrocarbons (such as heptane, octane, decalin, and hexadecane). These anion-encapsulating aggregates can be used to encapsulate anions present as contaminants in aqueous-hydrocarbon solvent mixtures, such as those present in in-process nuclear waste.

[2] = Thermal stability of rings on recrystallization from boiling n-butanol; format: physicochemical; conditions: recrystallization from boiling n-butanol (b.p.=118° C.)
Method: (Bu4N)2[SO4^2−⊂{cis-Cu^II(μ-OH)(μ-pz)}28] can also be crystallized from chlorobenzene, 1,2-dichloroethane or n-butylamine by hexane vapor diffusion, and from CH2Cl2 by Et2O vapor diffusion. SO4^2−⊂{cis-Cu^II(μ-OH)(μ-pz)}31 can also be crystallized as the Bu4N-salt from chlorobenzene. Moreover, crystals of (Bu4N)2[SO4^2−⊂{cis-Cu^II(μ-OH)(μ-pz)}28] were also obtained by recrystallization from boiling n-butanol (b.p.=118° C.), indicating stability of the rings at that temperature.

[3] = Liquid-liquid extraction of sulfate from aqueous nitrate solution at pH 14; conditions: 5 M nitrate (NaNO3), 0.044 M sulfate (Na2SO4), 1.25 M NaOH (pH 14); sulfate to nitrate ratio 1:114
Source text: In experiments, an aqueous solution containing 5 M nitrate (NaNO3), 0.044 M sulfate (Na2SO4) and 1.25 M NaOH (pH 14), in which the sulfate to nitrate ratio is 1:114 was combined together with an organic phase containing the stoichiometrically (based on the amount of sulfate) required amounts of nano-jar components.

[4] = Preliminary selectivity study: self-assembly reaction with competing anions, sulfate determined gravimetrically as BaSO4; conditions: for encapsulation of sulfate into the product: 1:54 molar ratio of sulfate and nitrate (or perchlorate) anions, gravimetric as BaSO4 after digestion with 6M HCl; for selectivity for sulfate ion in the presence of halides: in the presence of fluoride, chloride and bromide ions; for preference for sulfate anion over nitrate or perchlorate anions: preliminary selectivity studies
Source text: A self-assembly reaction using a 1:54 molar ratio of sulfate and nitrate (or perchlorate) anions led to the quantitative encapsulation of sulfate into the product, as determined gravimetrically by precipitation as BaSO4 after digestion with 6M HCl. […] The selectivity for sulfate over nitrate, along with the stability at high (basic) pH is especially relevant for the sulfate-extraction efforts during nuclear waste treatment by vitrification, because it allows liquid-liquid extraction. The methods described herein also offer the benefit of recyclability of the sulfate-encapsulating assemblies. The encapsulating host assemblies can be recovered by stirring the dry residue obtained after BaSO4 precipitation (containing CuCl2, Hpz and Et3NHCl) with excess Et3N in DMF. Following such mixing, the characteristic absorption at 599 nm indicates the re-assembly of the [cis-Cu^II(μ-OH)(μ-pz)]n rings.

solubility in a wide variety of solvents [1]	solubility in alcohols [1]	solubility in aliphatic hydrocarbons and water [1]	stability of the rings at temperature [2]	Substance	extraction of sulfate anions from aqueous phase to organic phase [3]	encapsulation of sulfate into the product [4]	selectivity for sulfate ion in the presence of halides [4]	preference for sulfate anion over nitrate or perchlorate anions [4]
highly soluble	slightly soluble	insoluble	stability	(Bu4N)2[SO4^2−⊂{cis-Cu^II(μ-OH)(μ-pz)}6+12+10]	–	–	–	–
highly soluble	slightly soluble	insoluble	–	(Bu4N)2[SO4^2−⊂{cis-Cu^II(μ-OH)(μ-pz)}8+14+9]	–	–	–	–
–	–	–	–	{cis-Cu^II(μ-OH)(μ-pz)}6+12+10 [Host 1]	effectively and selectively extracted	quantitative	Partial selectivity	marked preference
–	–	–	–	{cis-Cu^II(μ-OH)(μ-pz)}8+14+9 [Host 2]	effectively and selectively extracted	quantitative	Partial selectivity	marked preference
